Measured values from PubChem BioAssay AID330 (DTP/NCI, 2004).
Inconclusive results and toxic doses are left out. Rule for the calls: active = survival T/C of 150% or more; inactive = T/C below 125% in these data. Square brackets hold non-standard residues; d marks the D form. Peptide text beside a SMILES is read from it. * marks the point of attachment. Cbz = O=C(OCc1ccccc1)*; Nva = CCC[CH](N)C(=O)O

Test system: P388 leukemia ip, CD2F1 mice, survival T/C
Test: NCI In Vivo Anticancer Drug Screen. Data for tumor model P388 Leukemia (intraperitoneal) in CD2F1 (CDF1) mice
Conditions: endpoint: median survival time, higher = longer survival
In short: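 Mice carrying the transplanted tumor received test compound or vehicle. Survival was recorded in each group, and the value is the treated-group measurement divided by that of the vehicle-treated control group.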

[1] = dose: 50.0 mg/kg/injection, schedule: Q01DX005 (ip), vehicle: Klucel (hydroxypropylcellulose) (HPC)
[2] = dose: 100.0 mg/kg/injection, schedule: Q01DX005 (ip), vehicle: Klucel (hydroxypropylcellulose) (HPC)
[3] = dose: 200.0 mg/kg/injection, schedule: Q01DX005 (ip), vehicle: Klucel (hydroxypropylcellulose) (HPC)
[4] = dose: 100.0 mg/kg/injection, schedule: Q01DX009 (ip), vehicle: saline
[5] = dose: 60.0 mg/kg/injection, schedule: Q01DX005 (ip), vehicle: saline
[6] = dose: 120.0 mg/kg/injection, schedule: Q01DX005 (ip), vehicle: saline
[7] = dose: 240.0 mg/kg/injection, schedule: Q01DX005 (ip), vehicle: saline
[8] = dose: 100.0 mg/kg/injection, schedule: Q01DX005 (ip), vehicle: saline with Tween-80
[9] = dose: 200.0 mg/kg/injection, schedule: Q01DX005 (ip), vehicle: saline with Tween-80
[10] = dose: 60.0 mg/kg/injection, schedule: Q01DX005 (ip), vehicle: saline with Tween-80
[11] = dose: 120.0 mg/kg/injection, schedule: Q01DX005 (ip), vehicle: saline with Tween-80
[12] = dose: 240.0 mg/kg/injection, schedule: Q01DX005 (ip), vehicle: saline with Tween-80
[13] = dose: 50.0 mg/kg/injection, schedule: Q01DX005 (ip), vehicle: saline with Tween-80
[14] = dose: 60.0 mg/kg/injection, schedule: Q01DX005 (ip), vehicle: Klucel (hydroxypropylcellulose) (HPC)
[15] = dose: 120.0 mg/kg/injection, schedule: Q01DX005 (ip), vehicle: Klucel (hydroxypropylcellulose) (HPC)
[16] = dose: 240.0 mg/kg/injection, schedule: Q01DX005 (ip), vehicle: Klucel (hydroxypropylcellulose) (HPC)

Measured: T/C

COC(=O)C1Cc2cncn2C(=O)N1 (stereo unspecified)
inactive: dose: 8.0 mg/kg/injection, schedule: Q01DX009 (ip), vehicle: water 108 % of control | dose: 16.0 mg/kg/injection, schedule: Q01DX009 (ip), vehicle: water 100 % of control | dose: 32.0 mg/kg/injection, schedule: Q01DX009 (ip), vehicle: water 103 % of control | dose: 64.0 mg/kg/injection, schedule: Q01DX009 (ip), vehicle: water 107 % of control

CC1(C)c2c3ccccc3cc3cccc(c23)[S+]1c1ccccc1 (stereo unspecified)
inactive: dose: 5.0 mg/kg/injection, schedule: Q04DX003 (ip), vehicle: saline 100 % of control | dose: 10.0 mg/kg/injection, schedule: Q04DX003 (ip), vehicle: saline 104 % of control | dose: 20.0 mg/kg/injection, schedule: Q04DX003 (ip), vehicle: saline 108 % of control

Cc1ccc(N=C(CC(C)C)C2C(=O)c3ccccc3C2=O)cc1
inactive: [1] 100 % of control | [2] 94 % of control | [3] 99 % of control

NCC(O)c1cccc(C(F)(F)F)c1 (stereo unspecified)
inactive: dose: 50.0 mg/kg/injection, schedule: Q01DX009 (ip), vehicle: saline 92 % of control | [4] 100 % of control

CN(C)C(=O)NO
inactive: [5] 103 % of control | [6] 99 % of control | [7] 97 % of control

CN(OC(=O)C(C)(C)C)C(=O)C(C)(C)C
inactive: [8] 106 % of control | [9] 105 % of control | dose: 400.0 mg/kg/injection, schedule: Q01DX005 (ip), vehicle: saline with Tween-80 108 % of control

CC(C)(C)c1ccc(C(O)(C(F)(F)F)C(F)(F)F)cc1
inactive: dose: 100.0 mg/kg/injection, schedule: Q04DX002 (ip), vehicle: Klucel (hydroxypropylcellulose) (HPC) 94 % of control | dose: 200.0 mg/kg/injection, schedule: Q04DX002 (ip), vehicle: Klucel (hydroxypropylcellulose) (HPC) 94 % of control | dose: 400.0 mg/kg/injection, schedule: Q04DX002 (ip), vehicle: Klucel (hydroxypropylcellulose) (HPC) 109 % of control

COc1cc(/C=C2/Nc3ccc(Cl)cc3NC2=O)ccc1O
inactive: [10] 93 % of control | [11] 98 % of control | [12] 96 % of control

Cc1cc(N)c(C)c2c1[nH]c1ccc(Br)cc12
inactive: [13] 94 % of control | [8] 93 % of control | [9] 89 % of control

COc1cc2cc3c(nc2cc1OC)OC(=O)/C3=C\c1ccccc1
inactive: [13] 99 % of control | [8] 98 % of control | [9] 103 % of control

CCOC(=O)Nc1c(CCO)n[nH]c1C
inactive: [13] 108 % of control | [8] 101 % of control | [9] 97 % of control

O=C(Cc1n[nH]c(=S)nc1CC(=O)c1ccccc1)c1ccccc1
inactive: [10] 98 % of control | [11] 97 % of control | [12] 105 % of control

O=c1n(-c2ccccc2)c(=O)n2n1CC(c1ccccc1)=N2
inactive: dose: 100.0 mg/kg/injection, schedule: Q01DX009 (ip), vehicle: other 99 % of control | dose: 200.0 mg/kg/injection, schedule: Q01DX009 (ip), vehicle: other 91 % of control | dose: 400.0 mg/kg/injection, schedule: Q01DX009 (ip), vehicle: other 89 % of control

O=C1C2CSCN2C(=O)CN1CCN1CCOCC1 (stereo unspecified)
inactive: [5] 100 % of control | [6] 100 % of control | [7] 100 % of control

COc1c2cc(O)cc1CCCC1=CC(=O)C=C(CCC2)C1=O
inactive: dose: 100.0 mg/kg/injection, schedule: Q01DX001 (ip), vehicle: Klucel (hydroxypropylcellulose) (HPC) 99 % of control | dose: 200.0 mg/kg/injection, schedule: Q01DX001 (ip), vehicle: Klucel (hydroxypropylcellulose) (HPC) 99 % of control | dose: 400.0 mg/kg/injection, schedule: Q01DX001 (ip), vehicle: Klucel (hydroxypropylcellulose) (HPC) 108 % of control

CC1(C)OCC(C2OC3OC(C)(C)OC3C2=C(Br)Br)O1 (stereo unspecified)
inactive: [10] 91 % of control | [11] 100 % of control | [12] 89 % of control

CC(C)c1ccc(C2OCC(C)(C)C(C(C)C)O2)cc1 (stereo unspecified)
inactive: dose: 100.0 mg/kg/injection, schedule: Q04DX003 (ip), vehicle: saline with Tween-80 108 % of control | dose: 200.0 mg/kg/injection, schedule: Q04DX003 (ip), vehicle: saline with Tween-80 105 % of control | dose: 400.0 mg/kg/injection, schedule: Q04DX003 (ip), vehicle: saline with Tween-80 109 % of control

CCCC(NC(=O)OCc1ccccc1)C(=O)NC(Cc1ccccc1)C(N)=O (stereo unspecified) (Cbz-[Nva]-Phe-NH2; configuration not given here)
inactive: [1] 89 % of control | [2] 97 % of control | [3] 88 % of control

CCOc1c(N=Nc2ccccc2OC)c(C)nn1C(=S)S
inactive: [14] 102 % of control | [15] 114 % of control | [16] 105 % of control

COCC(Cl)/C(N)=N\S(=O)(=O)c1c(C)cc(Cl)cc1Cl (stereo unspecified)
inactive: [10] 101 % of control | [11] 100 % of control | [12] 96 % of control

CN1C(=O)N(C)[C@@H]2CC(=O)c3ccc(C(F)(F)F)cc3N2C1=O
inactive: [14] 101 % of control | [15] 107 % of control | [16] 103 % of control

O=c1[nH]nc(-c2ccccc2)c2c1[nH]c1ccccc12
inactive: [10] 93 % of control | [11] 96 % of control | [12] 86 % of control

Oc1ccccc1C=NCCC[N-]CCCN=Cc1ccccc1O.[Co]
inactive: dose: 12.5 mg/kg/injection, schedule: Q01DX009 (ip), vehicle: saline 113 % of control | [4] 119 % of control

COc1cc(CBr)ccc1OCc1ccccc1
inactive: dose: 12.5 mg/kg/injection, schedule: Q01DX009 (ip), vehicle: distilled water + Tween-80 111 % of control | dose: 25.0 mg/kg/injection, schedule: Q01DX009 (ip), vehicle: distilled water + Tween-80 101 % of control | dose: 50.0 mg/kg/injection, schedule: Q01DX009 (ip), vehicle: distilled water + Tween-80 108 % of control | dose: 100.0 mg/kg/injection, schedule: Q01DX009 (ip), vehicle: distilled water + Tween-80 108 % of control

N#CC(C#N)=C(O)/C(=C/c1ccccc1[N+](=O)[O-])NC(=O)c1ccccc1
inactive: [10] 106 % of control | [11] 104 % of control | [12] 92 % of control

NC(=S)c1cccc(C2Nc3ccccc3O2)c1 (stereo unspecified)
inactive: dose: 50.0 mg/kg/injection, schedule: Q01DX009 (ip), vehicle: saline with Tween-80 94 % of control | dose: 100.0 mg/kg/injection, schedule: Q01DX009 (ip), vehicle: saline with Tween-80 104 % of control | dose: 200.0 mg/kg/injection, schedule: Q01DX009 (ip), vehicle: saline with Tween-80 104 % of control

COc1cccc2c1OC(=O)C(S(=O)(=O)c1ccccc1)C2 (stereo unspecified)
inactive: [13] 97 % of control | [8] 104 % of control | [9] 101 % of control

CN=C(c1ccc(NC(=O)c2ccc(C(=O)Nc3ccc(C(=NC)N4CCOCC4)cc3)c(Cl)c2)cc1)N1CCOCC1
inactive: dose: 0.19 mg/kg/injection, schedule: Q01DX005 (ip), vehicle: saline 97 % of control | dose: 0.39 mg/kg/injection, schedule: Q01DX005 (ip), vehicle: saline 100 % of control | dose: 0.78 mg/kg/injection, schedule: Q01DX005 (ip), vehicle: saline 100 % of control | dose: 1.56 mg/kg/injection, schedule: Q01DX005 (ip), vehicle: saline 100 % of control | dose: 6.25 mg/kg/injection, schedule: Q01DX005 (ip), vehicle: saline 107 % of control
